Consider 22 molecules from ChEMBL document CHEMBL1130620, “New taxanes as highly efficient reversal agents for multidrug resistance in cancer cells” (Bioorg Med Chem Lett, 1998).

By IC50 is commonly meant the midpoint of a concentration-inhibition curve.

For experiment [1], the system named is MCF7R. In words: Cytotoxicity was evaluated at 1 uM concentration in MCF7-R cell line when co-administered with Paclitaxel. Format: functional, cell-based. As to conditions: Homo sapiens.
In experiment [2] the test system is MCF7R. In words: Compound was evaluated for multi-drug resistance (MDR) reversal at 1 uM concentration in MCF7-R cell line when co-administered with Paclitaxel. Format: functional, Homo sapiens.
Experiment [3] concerns MDA-MB-435. In words: Cytotoxicity was evaluated at 1 uM concentration in MDA 435/LCC6-MDR cell line when co-administered with Paclitaxel. Format: functional, cell-based. As to conditions: Homo sapiens.
In experiment [4] the test system is MDA-MB-435. In words: Compound was evaluated for multi-drug resistance (MDR) reversal at 1 uM concentration in MDA 435/LCC6-MDR cell line when co-administered with Paclitaxel. Format: functional, Homo sapiens.
Experiment [5] concerns MCF7R. In words: Cytotoxicity was evaluated at 3 uM concentration in MCF7-R cell line when co-administered with Paclitaxel. Format: functional, cell-based. As to conditions: Homo sapiens.
The test system of experiment [6] is MCF7R. In words: Compound was evaluated for multi-drug resistance (MDR) reversal at 3 uM concentration in MCF7-R cell line when co-administered with Paclitaxel. Format: functional, Homo sapiens.
Experiment [7] concerns MDA-MB-435. In words: Cytotoxicity was evaluated at 0.1 uM concentration in MDA 435/LCC6-MDR cell line when co-administered with Paclitaxel. Format: functional, cell-based. As to conditions: Homo sapiens.
Experiment [8] concerns MDA-MB-435. In words: Compound was evaluated for multi-drug resistance (MDR) reversal at 0.1 uM concentration in MDA 435/LCC6-MDR cell line when co-administered with Paclitaxel. In kind it is functional, Homo sapiens.
Experiment [9] relates to MDA-MB-435. In words: Cytotoxicity was evaluated at 3 uM concentration in MDA 435/LCC6-MDR cell line when co-administered with Paclitaxel. Format: functional, cell-based. The note with it: Homo sapiens.
Experiment [10] concerns MDA-MB-435. In words: Compound was evaluated for multi-drug resistance (MDR) reversal at 3 uM concentration in MDA 435/LCC6-MDR cell line when co-administered with Paclitaxel. In kind it is functional, Homo sapiens.
The test system of experiment [11] is MCF7R. In words: Cytotoxicity was evaluated in MCF7-R cell line. As to conditions: Homo sapiens. Format: functional, cell-based.
The test system of experiment [12] is MCF7R. In words: Compound was evaluated for multi-drug resistance (MDR) reversal in MCF7-R cell line. Format: functional, Homo sapiens.
In experiment [13] the test system is MDA-MB-435. In words: Cytotoxicity was evaluated in MDA 435/LCC6-MDR cell line. Format: functional, cell-based. As to conditions: Homo sapiens.
Experiment [14] deals with MDA-MB-435. In words: Compound was evaluated for multi-drug resistance (MDR) reversal in MDA 435/LCC6-MDR cell line. Format: functional, Homo sapiens.

For `CC(=O)O[C@@]12CO[C@@H]1C[C@H](OC(=O)CCc1ccc(C(=O)c3ccccc3)cc1)[C@@]1(C)C(=O)[C@H](OC(=O)CCc3ccc(C(=O)c4ccccc4)cc3)C3=C(C)[C@@H](O)C[C@@](O)([C@@H](OC(=O)c4ccccc4)[C@H]21)C3(C)C`, in the experiment with MCF7R [1], the IC50 amounted to 2.6 nM. In addition, the Reduction in the experiment on MCF7R [2] turned out to be 99.7%.
For the molecule `CC(=O)O[C@H]1C(=O)[C@]2(C)[C@@H](OC(=O)/C=C/c3ccc4ccccc4c3)C[C@H]3OC[C@@]3(OC(C)=O)[C@H]2[C@H](OC(=O)c2ccccc2)[C@]2(O)C[C@H](O)C(C)=C1C2(C)C`, the IC50 with MCF7R [1] worked out at 36 nM; with MDA-MB-435 [3], 430 nM. In addition, the results for the Reduction in the experiment on MCF7R [2] and in the experiment on MDA-MB-435 [4] were 96% and 50%, respectively.
Take `CC(=O)O[C@@]12CO[C@@H]1C[C@H](OC(=O)OCC(Cl)(Cl)Cl)[C@@]1(C)C(=O)[C@H](OC(=O)OCC(Cl)(Cl)Cl)C3=C(C)[C@@H](OC(=O)/C=C/c4ccc5ccccc5c4)C[C@@](O)([C@@H](OC(=O)c4ccccc4)[C@H]21)C3(C)C`: the concentration for half-maximal inhibition (IC50) in the experiment with MCF7R [5] is 750 nM. Moreover, the Reduction in the experiment on MCF7R [6] came out at 12%.
As to `CC(=O)O[C@H]1C(=O)[C@]2(C)[C@@H](OC(=O)CCc3ccc4ccccc4c3)C[C@H]3OC[C@@]3(OC(C)=O)[C@H]2[C@H](OC(=O)c2ccccc2)[C@]2(O)C[C@H](O)C(C)=C1C2(C)C`, the IC50 in the experiment on MCF7R [1] came out at 33 nM. In addition, in the experiment with MCF7R [2], the Reduction came to 96%.
For `CC(=O)O[C@H]1C(=O)[C@]2(C)[C@@H](OC(=O)CCC3CCC4CCCCC4C3)C[C@H]3OC[C@@]3(OC(C)=O)[C@H]2[C@H](OC(=O)C2CCCCC2)[C@]2(O)C[C@H](O)C(C)=C1C2(C)C` (stereo partly specified), the IC50 with MCF7R [1] was 160 nM. In addition, the Reduction in the experiment with MCF7R [2] stood at 81%.
Take `CC(=O)O[C@H]1C(=O)[C@]2(C)[C@@H](OC(=O)/C=C/c3ccc4ccccc4c3)C[C@H]3OC[C@@]3(OC(C)=O)[C@H]2[C@H](OC(=O)c2ccccc2)[C@]2(O)C[C@H](OC(C)=O)C(C)=C1C2(C)C`: the results for the IC50 in the experiment on MCF7R [5] and with MDA-MB-435 [7] were 5.8 nM and 340 nM, respectively. For the same molecule, the Reduction in the experiment on MCF7R [6] is listed as 99.3%; with MDA-MB-435 [8] it was 60%.
Consider `CC(=O)O[C@H]1C(=O)[C@]2(C)[C@@H](OC(=O)/C=C/c3ccc(C(=O)c4ccccc4)cc3)C[C@H]3OC[C@@]3(OC(C)=O)[C@H]2[C@H](OC(=O)c2ccccc2)[C@]2(O)C[C@H](OC(C)=O)C(C)=C1C2(C)C`, for which the IC50 stood at 2.6 nM in the experiment with MCF7R [5], 52 nM with MDA-MB-435 [7] and 69 nM with MDA-MB-435 [9]. The Reduction in the experiment on MDA-MB-435 [8] is given as 94%; with MDA-MB-435 [10] it was 92%.
As to `CC(=O)O[C@@]12CO[C@@H]1C[C@H](O)[C@@]1(C)C(=O)[C@H](O)C3=C(C)[C@@H](OC(=O)/C=C/c4ccc(C(=O)c5ccccc5)cc4)C[C@@](O)([C@@H](OC(=O)c4ccccc4)[C@H]21)C3(C)C`, the IC50 with MCF7R [1] is 860 nM. In addition, in the experiment on MCF7R [2], the Reduction was found to be 0%.
For `CC(=O)O[C@H]1C(=O)[C@]2(C)[C@@H](OC(=O)c3ccc4ccccc4c3)C[C@H]3OC[C@@]3(OC(C)=O)[C@H]2[C@H](OC(=O)c2ccccc2)[C@]2(O)C[C@H](O)C(C)=C1C2(C)C`, the IC50 with MCF7R [1] came out at 21 nM.
In the case of `CC(=O)O[C@H]1C(=O)[C@]2(C)[C@@H](OC(C)=O)C[C@H]3OC[C@@]3(OC(C)=O)[C@H]2[C@H](OC(=O)/C=C/c2ccc(C(=O)c3ccccc3)cc2)[C@]2(O)C[C@H](OC(C)=O)C(C)=C1C2(C)C`, the IC50 in the experiment on MDA-MB-435 [7] was 630 nM. Also, in the experiment on MDA-MB-435 [8], the Reduction worked out at 27%.
Regarding `CC(=O)O[C@@]12CO[C@@H]1C[C@H](O)[C@@]1(C)C(=O)[C@H](OC(=O)/C=C/c3ccc(C(=O)c4ccccc4)cc3)C3=C(C)[C@@H](O)C[C@@](O)([C@@H](OC(=O)c4ccccc4)[C@H]21)C3(C)C`, the IC50 with MCF7R [1] came out at 42 nM. Also, the Reduction in the experiment on MCF7R [2] was found to be 95%.
Take `CC(=O)O[C@@]12CO[C@@H]1C[C@H](OC(=O)OCC(Cl)(Cl)Cl)[C@@]1(C)C(=O)[C@H](OC(=O)OCC(Cl)(Cl)Cl)C3=C(C)[C@@H](OC(=O)CCc4ccc5ccccc5c4)C[C@@](O)([C@@H](OC(=O)c4ccccc4)[C@H]21)C3(C)C`: in the experiment with MCF7R [5], the half-maximal inhibitory concentration (IC50) turned out to be 860 nM. Moreover, the Reduction in the experiment on MCF7R [6] is 0%.
For `CC(=O)O[C@@]12CO[C@@H]1C[C@H](OC(=O)/C=C/c1ccc3ccccc3c1)[C@@]1(C)C(=O)[C@H](OC(=O)/C=C/c3ccc4ccccc4c3)C3=C(C)[C@@H](O)C[C@@](O)([C@@H](OC(=O)c4ccccc4)[C@H]21)C3(C)C`, the IC50 with MCF7R [1] was 470 nM. Further, in the experiment on MCF7R [2], the Reduction is 45%.
For the molecule `CC(=O)O[C@@]12CO[C@@H]1C[C@H](OC(=O)OCC(Cl)(Cl)Cl)[C@@]1(C)C(=O)[C@H](OC(=O)OCC(Cl)(Cl)Cl)C3=C(C)[C@@H](OC(=O)/C=C/c4ccc(C(=O)c5ccccc5)cc4)C[C@@](O)([C@@H](OC(=O)c4ccccc4)[C@H]21)C3(C)C`, in the experiment with MCF7R [5], the IC50 came to 170 nM. Further, the Reduction in the experiment on MCF7R [6] is on record as 80%.
As for `CC(=O)O[C@@]12CO[C@@H]1C[C@H](OC(=O)CCc1ccc(C(=O)c3ccccc3)cc1)[C@@]1(C)C(=O)[C@H](OC(=O)CCc3ccc(C(=O)c4ccccc4)cc3)C3=C(C)[C@@H](OC(=O)CCc4ccc(C(=O)c5ccccc5)cc4)C[C@@](O)([C@@H](OC(=O)c4ccccc4)[C@H]21)C3(C)C`, the IC50 in the experiment with MDA-MB-435 [7] was 860 nM. Moreover, the Reduction with MDA-MB-435 [8] is recorded as 0%.
Consider `CC(=O)O[C@@]12CO[C@@H]1C[C@H](OC(=O)/C=C/c1ccc3ccccc3c1)[C@@]1(C)C(=O)[C@H](OC(=O)CCc3ccc(C(=O)c4ccccc4)cc3)C3=C(C)[C@@H](O)C[C@@](O)([C@@H](OC(=O)c4ccccc4)[C@H]21)C3(C)C`, for which the IC50 with MCF7R [1] is 860 nM. For the same molecule, the Reduction with MCF7R [2] is recorded as 0%.
With `CC(=O)O[C@H]1C(=O)[C@]2(C)[C@@H](OC(C)=O)C[C@H]3OC[C@@]3(OC(C)=O)[C@H]2[C@H](OC(=O)CCc2ccc3ccccc3c2)[C@]2(O)C[C@H](OC(C)=O)C(C)=C1C2(C)C`, in the experiment with MDA-MB-435 [7], the IC50 worked out at 650 nM. Besides, in the experiment with MDA-MB-435 [8], the Reduction is reported as 24%.
Take `CC(=O)O[C@H]1C(=O)[C@]2(C)[C@@H](OC(=O)CNC(=O)c3ccc4ccccc4c3)C[C@H]3OC[C@@]3(OC(C)=O)[C@H]2[C@H](OC(=O)c2ccccc2)[C@]2(O)C[C@H](O)C(C)=C1C2(C)C`: the 50% inhibitory concentration (IC50) in the experiment on MCF7R [1] worked out at 500 nM. In the experiment with MCF7R [2], the Reduction stood at 42%.
For `CC(=O)O[C@@]12CO[C@@H]1C[C@H](O)[C@@]1(C)C(=O)[C@H](O)C3=C(C)[C@@H](OC(=O)/C=C/c4ccc5ccccc5c4)C[C@@](O)([C@@H](OC(=O)c4ccccc4)[C@H]21)C3(C)C`, in that order: 100 nM and 88%.
As to `CC(=O)O[C@H]1C(=O)[C@]2(C)[C@@H](OC(=O)/C=C/c3ccc(C(=O)c4ccccc4)cc3)C[C@H]3OC[C@@]3(OC(C)=O)[C@H]2[C@H](OC(=O)c2ccccc2)[C@]2(O)C[C@H](O)C(C)=C1C2(C)C`, the IC50 with MCF7R [5] was determined as 1.6 nM.
Take `CC(=O)O[C@@]12CO[C@@H]1C[C@H](O)[C@@]1(C)C(=O)[C@H](O)C3=C(C)[C@@H](OC(=O)CCc4ccc5ccccc5c4)C[C@@](O)([C@@H](OC(=O)c4ccccc4)[C@H]21)C3(C)C`: the IC50 with MCF7R [1] amounted to 540 nM. In addition, in the experiment on MCF7R [2], the Reduction stood at 37%.
Consider `CC(=O)O[C@H]1C(=O)[C@@]2(C)[C@H]([C@H](OC(=O)c3ccccc3)[C@]3(O)C[C@H](OC(=O)[C@H](O)[C@@H](NC(=O)c4ccccc4)c4ccccc4)C(C)=C1C3(C)C)[C@]1(OC(C)=O)CO[C@@H]1C[C@@H]2O` [PACLITAXEL], for which the IC50 in the experiment on MCF7R [11] and in the experiment on MDA-MB-435 [13] was 860 nM each time. Further, the Reduction in the experiment on MCF7R [12] and with MDA-MB-435 [14] was 0% in each case.
